Where two headings read alike, the source gives them in different places.
Assays:
[1] = system: patients with CRPC progressing on Enza (Cohort A) or Abi (Cohort B); format: in vivo, human
Source text: The RESTORE study (NCT02090114) was an NIH sponsored Phase II study designed to assess the safety and efficacy of BAT in patients (n=30 per cohort) with CRPC progressing on Enza (Cohort A) or Abi (Cohort B), FIG. 18A (34,39). The primary endpoint of the first part of the study was to assess PSA response to BAT. Secondary endpoints included objective response, safety, and quality of life. The second part of the study was to determine in BAT could re-sensitize patients to repeat exposure to second line therapy that patients were progressing on prior to receiving BAT. Thus, patients progressing on Enza were re-exposed to Enza after BAT and similarly for Abi. Both arms of this study met the primary endpoint. PSA50 response to BAT was 30% in patient's post-Enza and 18% post-Abi, FIG. 18B. […] Overall duration of response to BAT and duration of response to re-exposure was longer in the post-Enza vs. post-Abi cohort. The PSAso response to re-exposure to Enza was 71% vs. only 21% for patients re-exposed to Abi, FIG. 19B (7). A third cohort was later added (Cohort C) for patients progressing on ADT alone. Overall, 90 patients were treated on this study over a 4-year period (2014-2018).

[2] = system: chronically castrated patients with rising PSA and CRPC; test: Pilot study of BAT with oral etoposide, then second line therapy post-BAT; format: in vivo, human; details: for PSA decline upon re-challenge: agent previously progressed on
Source text: Based on the preclinical results and potential mechanisms for growth inhibition that include androgen-induced double strand breaks and stabilization of AR preventing relicensing, we have conducted a pilot study evaluating the efficacy and safety of pharmacologic doses of testosterone to produce high dose T levels in conjunction with oral etoposide in chronically castrated patients with rising PSA and CRPC (37). Patients who had been continuously castrate for more than one year with minimal metastatic disease burden (≤5 total bone metastases and ≤10 total sites of metastases) and/or rising PSA were eligible. To achieve rapid cycling between high dose and near castrate serum T (i.e., BAT) patients received intramuscular injection of 400 mg testosterone cypionate every 28 days. For the first 3 cycles of therapy patients received BAT plus oral etoposide 100 mg po/day days 1-14 of a 28-day cycle. After 3 cycles PSA response and objective response were assessed. Those patients with a PSA that was declining from peak levels and no objective evidence of disease progression or worsening pain were continued on therapy. Given the toxicity associated with etoposide and the lack of clinical response in an earlier trial (38), patients who responded after 3 cycles of testosterone plus etoposide were continued on testosterone alone based on protocol amendment.

MYC = MYC expression in metastatic tumor biopsies before and after BAT; format: in vivo, human; details: responding patients
Source text: (§1) FIG. 5A, FIG. 5B, FIG. 5C, FIG. 5D, and FIG. 5E show: FIG. 5A, MYC expression by IHC in a metastatic tumor biopsy from a patient before and after 3 months of BAT. FIG. 5B, Quantification of MYC protein expression from metastatic tumor biopsies from patients before and after 3 months of BAT color-coded by response (non-responder NR; responder R). […] Vinculin was used as a loading control. FIG. 5D, Principal component analysis of RNA and ATAC sequencing of LNCaP cells treated for 5 days with R1881 10 nM (SPA). […] Vinculin was used as a loading control;

patients with CRPC [3] = test: Plasma putrescine in patients treated with BAT (COMBAT trial); details: human, in vivo
Source text: (§2) Vinculin was used as a loading control. FIG. 2F, Polyamine synthesis pathway.

[4] = system: asymptomatic patients with CRPC progressing on Abi; test: TRANSFORMER randomized Phase II study, BAT vs. Enza with crossover; format: in vivo, human
Description: The TRANSFORMER study (NCT02286921) was a DOD-sponsored randomized Phase II study designed to compare the efficacy of BAT vs. Enza in asymptomatic patients with CRPC progressing on Abi, FIG. 19A (2). The study was conducted at 17 academic centers across the US. The study was coordinated by the Prostate Cancer Disease Group clinical research team at Johns Hopkins, who performed regulatory oversight, study/site monitoring, and data analyses. From 2015-2018, 195 patients underwent 1:1 randomization to either standard dose Enza (n=101) or BAT (n=94) at 400 mg IM every 28 days. The primary endpoint was clinical/radiographic PFS. At time of progression, patients were given the option to crossover to the alternate therapy. The trial was designed to show a 50% improvement in the primary endpoint for BAT vs. Enza. […] Objective response was 24.4% for BAT and 4.2% for Enza (p=0.067). Best PSA50 was 26.4% for BAT and 25.5% for Enza (p=0.697).
At time of progression, 46 (49%) of patients on the Enza arm crossed over to receive BAT and 34 (33.7%) crossed over from BAT to receive Enza and were available for analysis. Remarkably, the PSAso response for patients who received Enza after BAT was 72.7% compared to 25.5% for patients receiving Enza immediately after Abi, FIG. 19D. Objective response in the Enza post-BAT patients was 28.6% compared to 4.2% post-Abi, FIG. 19B. […] The logical extension of these findings and the hypothesis of this proposal is that patients are likely to respond again to further repeat cycles of BAT and Enza, but this treatment strategy has yet to be explored in the clinical trial setting.

patients with CRPC [5] = test: BAT clinical studies, overall experience; format: in vivo, human
Source text: A major driver of castration resistance is the adaptive upregulation of AR activity, often through AR protein overexpression, to a sufficient level to allow for renewed growth. This marked overexpression of AR makes PCa cells once again vulnerable to hormone shock, achieved not through further androgen blockade, but through exposure to supraphysiologic levels of androgen (SPA). Based on extensive preclinical studies, we developed Bipolar Androgen Therapy (BAT), which involves cyclic administration of SPA as treatment for CRPC.
Inhibition of signaling through the androgen receptor (AR) is the mainstay of treatment of advanced PCa. […] This phase of the disease is associated with poor prognosis and limited therapeutic options. The majority of PCas are addicted to signaling through AR and adaptively upregulate AR-activity, via mechanisms such as AR overexpression, to permit sustained AR signaling despite castration and AR inhibitors (1,2). Studies dating back nearly thirty years indicate that high expression of AR induced by prolonged castration becomes a vulnerability of CRPC cells in vitro and in mouse xenografts to supraphysiological androgen (SPA), which induces cell death and growth arrest in this context (3,4). On the basis of these studies, we developed an innovative treatment called Bipolar Androgen Therapy (BAT) for patients with CRPC, in which SPA is administered intermittently to result in cycling of serum testosterone from supraphysiological to near castrate levels. This rapid cycling is intended to reduce adaptation AR regulation associated with chronic exposure to high or low levels of testosterone, while simultaneously targeting the spectrum of AR expression present in heterogeneous CRPC tumors (5). We have now tested BAT in more than 350 patients with CRPC (6-10).

LNCaP cells [6] = test: Putrescine abundance by HPLC in cells and media; format: cell-based, human; details: 10 nM
Source text: as §2

LNCaP cells [7] = test: Colony formation (clonal survival); format: cell-based, human; details: Homo sapiens, LNCaP; 0.5 nM
Source text: (§3) FIG. 3A. […] Ns, not significant. FIG. 3B. […] Ns, not significant. FIG. 3C. […] P values by ANOVA;

VCaP cells = test: Colony formation (clonal survival); format: cell-based, human; details: Homo sapiens, VCaP; 0.5 nM
Source text: as §3

[8] = system: MYC in LNCaP and VCaP cells; test: MYC expression by western blot, RT-PCR, RNAseq; format: cell-based, human; details: to the level of SPA monotherapy
Source text: as §1

[9] = system: patients with advanced CRPC, long-term castrates; details: cited from earlier work
[10] = system: SKCaP-1R patient-derived xenograft tumors; test: Global metabolomics of SKCaP-1R tumors; format: in vivo, castrated NSG mice; details: 14 days of treatment
patients with CRPC [11] = details: cited from earlier work
[12] = system: patients with early CRPC (rising PSA and minimal bone disease); details: cited from earlier work

## C[C@]12CC[C@H](O)CC1=CC[C@@H]1[C@@H]2CC[C@]2(C)C(c3cccnc3)=CC[C@@H]12 [Abi]
[1]; re-exposed to agent progressed on before BAT
  PSA50 response to re-exposure (re-challenge) post-BAT: 21%
[2]; post-BAT
  patients with >50% PSA decline on second line therapy: Four of 4

## C[C@]12CC[C@H]3[C@@H](CCC4=CC(=O)CC[C@@]43C)[C@@H]1CC[C@@H]2OC(=O)CCC1CCCC1 [BAT, androst-4-en-3-one, 17-(3-cyclopentyl-1-oxopropoxy)-, (17ß)-]
[1]; BAT compared to baseline on ADT
  QoL surveys (FACIT Fatigue, IIEF, SF-36 subscales): significant improvement
[1]; in vivo
  Adverse events to BAT, grade: primarily Grade 1-2
  patients with grade 3 hypertension attributed to BAT: 3 patients
[1]; post-Abi (Cohort B)
  PSA50 response to BAT: 18%
[1]; post-Enza (Cohort A)
  PSA50 response to BAT: 30%
[2]; BAT monotherapy phase
  subjects experiencing an AE: four
[2]; completing 3 months of therapy
  patients developing new bone metastases: None of the 14 patients
[2]; in vivo
  AEs during BAT monotherapy phase: rare and low grade
  new pain, skeletal events or urinary obstruction due to prostate cancer: None of the 14 patients
  patients with decline in PSA from baseline: Seven of fourteen
[2]; patients who completed three cycles
  PSA decline/response and objective responses, patients: 50%
[2]; seven patients with PSA decline, range 95 to 454 days
  median time to PSA progression: 221 days
[2]; ten RECIST-evaluable subjects
  complete response (CR): 10%
  partial responses (PRs): 40%
[2]; ten RECIST-evaluable subjects, median follow up 91 days
  stable disease: 30%
[2]; ten subjects with RECIST-evaluable soft tissue metastases
  progressive disease (PD): 20%
MYC
  MYC expression in tumor biopsies: decreased
Patients with CRPC [3]
  plasma putrescine abundance: increased
[4]; BAT after Enza (crossover)
  PSA50 response: 22.2%
[4]; initial treatment immediately after Abi, no prior crossover
  PSA50 response: 26.4%
[4]; randomized arms
  clinical/radiographic PFS: 5.62 m
[4]; randomized arms, post-Abi
  Objective response: 24.4%
Patients with CRPC [5]; 56 days of BAT monotherapy, mCRPC
  PSA50 response rate: approximately 25%
Patients with CRPC [5]; 64 days of BAT monotherapy, mCRPC
  PSA50 response rate: approximately 25%
Patients with CRPC [5]; human, in vivo
  PSA/objective (biochemical and objective) response: 20-30%
  quality of life: improved quality of life
Patients with CRPC [5]; mCRPC, monotherapy
  objective response rate: approximately 30%

## C[C@]1(O)CC[C@H]2[C@@H]3CCC4=CC(=O)CCC4=C3C=C[C@@]21C [R1881, 17α-methyl-19-nor-δ9,11-testosterone]
LNCaP cells [6]
  putrescine, intracellular and extracellular: Marked intracellular and extracellular accumulation
LNCaP cells [7]
  inhibition at 0.0005 µM: ~15%
VCaP cells
  inhibition at 0.0005 µM: ~15%

## N=C(N)c1cccc2c1CC/C2=N\N=C(N)N [SAM486]
[8]
  rescue of MYC in cells treated with SPA and DFMO: phenocopied

## C[S+](CC[C@H](N)C(=O)O)C[C@H]1O[C@@H](n2cnc3c(N)ncnc32)[C@H](O)[C@@H]1O (stereo partly shown) [SAM, S-adenosylmethionine]
[8]
  rescue of MYC in cells treated with SPA and DFMO: sufficient to rescue MYC

## CC(O)(CS(=O)(=O)c1ccc(F)cc1)C(=O)Nc1ccc(C#N)c(C(F)(F)F)c1 (stereo not shown) [bicalutamide]
[2]; post-BAT
  PSA decline upon re-challenge: 30.9%

## CC1(C)NC(=O)N(c2ccc([N+](=O)[O-])c(C(F)(F)F)c2)C1=O [nilutamide]
[2]; post-BAT
  PSA decline upon re-challenge: 44.3%

## C[C@]12CC[C@H]3[C@@H](CCC4=CC(=O)CC[C@@]43C)[C@@H]1CC[C@@H]2O [testosterone]
[9]; Brendler et al. 1949, parenteral
  clinical improvement (pain, prostate size, phosphatases): considerable improvement in several patients
[9]; long-term castrate group, at least one month
  patients with subjective improvement: 4 of 5
[9]; longer course of testosterone
  patients with decline of acid phosphatase: 2/5
[10]
  abundance of polyamine precursors ornithine and SAM in tumors: decreased
  abundance of polyamines putrescine and spermine in tumors: increased

## C[C@]12CC[C@H]3[C@@H](CCC4=CC(=O)CC[C@@]43C)[C@@H]1CC[C@@H]2O [transdermal T]
Patients with CRPC [11]; 7.5 mg/day
  grade 3 or 4 toxicities, pain flares: no grade 3 or 4 toxicities and no pain flares
  objective responses: No objective responses
Patients with CRPC [11]; 12 patients
  patients with >50% PSA decline: one
  patients with at least 20% PSA declines: Four
[12]; 2.5 mg/day transdermal
  median concentration of T: 305 ng/dL
[12]; 5.0 mg/day transdermal
  median concentration of T: 308 ng/dL
[12]; 7.5 mg/day transdermal
  median concentration of T: 297 ng/dL
[12]; 15 patients
  patients with a decrease in PSA: 20%
[12]; in vivo
  grade 3 or 4 toxicities: no grade 3 or 4 toxicities were observed with the exception of one person
  largest decrease in PSA: 43%
  patients with symptomatic progression: one
